The target of experiment [1] is 3',5'-cyclic-AMP phosphodiesterase 4D (Homo sapiens, UniProt Q08499). In kind it is functional.
Another experiment has as its target Melanocortin receptor 3 (Homo sapiens, UniProt P41968).
Experiment [2] concerns the target T1, Equilibrative nucleoside transporter 1 (Homo sapiens, UniProt Q99808).
T1 sequence (Q99808 whole entry): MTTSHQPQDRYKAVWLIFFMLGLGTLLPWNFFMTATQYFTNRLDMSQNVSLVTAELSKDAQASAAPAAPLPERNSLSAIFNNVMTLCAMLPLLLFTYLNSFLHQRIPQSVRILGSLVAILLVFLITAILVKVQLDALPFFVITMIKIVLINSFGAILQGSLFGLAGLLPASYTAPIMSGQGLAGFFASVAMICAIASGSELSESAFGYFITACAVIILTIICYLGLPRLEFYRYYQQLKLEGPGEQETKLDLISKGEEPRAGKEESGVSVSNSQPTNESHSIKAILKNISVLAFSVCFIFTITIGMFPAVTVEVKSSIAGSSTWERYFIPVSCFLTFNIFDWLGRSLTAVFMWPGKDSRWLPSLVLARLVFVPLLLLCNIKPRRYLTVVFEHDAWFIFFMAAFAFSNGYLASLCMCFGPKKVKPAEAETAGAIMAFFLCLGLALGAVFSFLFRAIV

The target of experiment [3] is T2, Type-1 angiotensin II receptor (Homo sapiens, UniProt P30556).
T2 sequence (P30556 whole entry): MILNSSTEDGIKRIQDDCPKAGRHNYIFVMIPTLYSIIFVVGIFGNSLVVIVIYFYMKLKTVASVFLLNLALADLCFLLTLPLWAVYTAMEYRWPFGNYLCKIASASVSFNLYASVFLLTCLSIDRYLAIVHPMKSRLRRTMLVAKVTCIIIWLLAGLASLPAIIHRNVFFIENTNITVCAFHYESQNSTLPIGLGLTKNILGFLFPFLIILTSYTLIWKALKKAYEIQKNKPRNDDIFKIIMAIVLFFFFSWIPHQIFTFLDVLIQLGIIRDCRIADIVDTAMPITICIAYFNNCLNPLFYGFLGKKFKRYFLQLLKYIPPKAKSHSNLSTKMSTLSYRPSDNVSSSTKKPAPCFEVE

Experiment [4] addresses T3, Muscarinic acetylcholine receptor M2 (Homo sapiens, UniProt P08172).
T3 sequence (P08172 whole entry): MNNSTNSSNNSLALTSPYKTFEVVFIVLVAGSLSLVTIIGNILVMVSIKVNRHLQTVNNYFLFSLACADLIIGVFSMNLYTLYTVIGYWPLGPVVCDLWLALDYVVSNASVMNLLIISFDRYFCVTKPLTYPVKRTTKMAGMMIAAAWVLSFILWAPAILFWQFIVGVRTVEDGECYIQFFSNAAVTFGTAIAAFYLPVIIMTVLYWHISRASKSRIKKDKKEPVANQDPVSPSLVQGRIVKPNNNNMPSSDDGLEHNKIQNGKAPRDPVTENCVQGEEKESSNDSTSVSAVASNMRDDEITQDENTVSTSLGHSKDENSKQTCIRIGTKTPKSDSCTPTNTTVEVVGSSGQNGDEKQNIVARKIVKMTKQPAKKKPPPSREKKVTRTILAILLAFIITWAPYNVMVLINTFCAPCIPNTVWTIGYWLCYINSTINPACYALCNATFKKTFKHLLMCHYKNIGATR
In kind it is functional, cell-based.

The target of experiment [5] is T4, Alpha-2A adrenergic receptor (Homo sapiens, UniProt P08913).
T4 sequence (P08913 whole entry): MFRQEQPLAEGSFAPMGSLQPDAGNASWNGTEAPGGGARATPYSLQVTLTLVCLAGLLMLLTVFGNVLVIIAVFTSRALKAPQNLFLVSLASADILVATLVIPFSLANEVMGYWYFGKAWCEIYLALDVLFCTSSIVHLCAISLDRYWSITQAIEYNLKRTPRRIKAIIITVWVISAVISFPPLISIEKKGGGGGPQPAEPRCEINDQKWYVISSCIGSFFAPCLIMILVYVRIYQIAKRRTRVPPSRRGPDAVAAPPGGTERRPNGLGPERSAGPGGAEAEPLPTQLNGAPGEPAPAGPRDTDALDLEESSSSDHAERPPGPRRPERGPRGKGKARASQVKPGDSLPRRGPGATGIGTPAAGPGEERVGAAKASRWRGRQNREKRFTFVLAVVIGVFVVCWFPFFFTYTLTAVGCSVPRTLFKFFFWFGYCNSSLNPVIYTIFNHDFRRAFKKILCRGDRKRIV
The class given is functional, cell-based.

The next experiment has as its target D(3) dopamine receptor (Homo sapiens, UniProt P35462).
For the next experiment, the target named is T5, Adenosine receptor A1 (Homo sapiens, UniProt P30542).
T5 sequence (P30542 whole entry): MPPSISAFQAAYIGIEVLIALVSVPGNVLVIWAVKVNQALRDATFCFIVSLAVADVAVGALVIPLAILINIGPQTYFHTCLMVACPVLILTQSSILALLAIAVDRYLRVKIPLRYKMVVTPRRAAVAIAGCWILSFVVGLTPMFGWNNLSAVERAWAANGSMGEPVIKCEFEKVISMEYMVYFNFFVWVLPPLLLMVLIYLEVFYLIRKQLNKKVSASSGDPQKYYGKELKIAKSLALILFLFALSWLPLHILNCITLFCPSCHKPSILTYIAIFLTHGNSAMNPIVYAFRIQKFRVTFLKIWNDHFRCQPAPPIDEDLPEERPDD

Experiment [6] addresses Sodium-dependent noradrenaline transporter (Homo sapiens, UniProt P23975).
The target of the next experiment is D(1A) dopamine receptor (Homo sapiens, UniProt P21728). The class given is functional, cell-based.
Experiment [7] deals with Delta-type opioid receptor (Homo sapiens, UniProt P41143).
Further: assay procedure not described here.

Chain of Sodium-dependent noradrenaline transporter (P23975 whole entry): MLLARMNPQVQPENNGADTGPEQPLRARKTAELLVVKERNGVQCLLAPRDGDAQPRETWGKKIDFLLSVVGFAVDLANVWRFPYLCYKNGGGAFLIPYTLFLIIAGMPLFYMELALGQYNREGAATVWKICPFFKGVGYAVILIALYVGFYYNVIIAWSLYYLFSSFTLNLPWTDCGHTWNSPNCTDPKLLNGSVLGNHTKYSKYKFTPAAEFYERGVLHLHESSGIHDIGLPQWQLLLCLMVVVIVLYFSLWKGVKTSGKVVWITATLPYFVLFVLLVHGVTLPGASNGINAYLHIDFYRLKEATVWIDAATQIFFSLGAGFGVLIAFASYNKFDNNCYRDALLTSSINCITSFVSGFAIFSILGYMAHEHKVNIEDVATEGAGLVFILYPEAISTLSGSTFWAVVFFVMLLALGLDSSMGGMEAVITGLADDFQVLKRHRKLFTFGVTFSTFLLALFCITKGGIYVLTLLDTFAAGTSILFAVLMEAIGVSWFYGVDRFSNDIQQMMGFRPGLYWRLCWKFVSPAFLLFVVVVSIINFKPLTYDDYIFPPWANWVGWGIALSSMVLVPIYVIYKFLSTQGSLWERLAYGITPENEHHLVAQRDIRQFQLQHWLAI
Chain of Melanocortin receptor 3 (P41968 whole entry): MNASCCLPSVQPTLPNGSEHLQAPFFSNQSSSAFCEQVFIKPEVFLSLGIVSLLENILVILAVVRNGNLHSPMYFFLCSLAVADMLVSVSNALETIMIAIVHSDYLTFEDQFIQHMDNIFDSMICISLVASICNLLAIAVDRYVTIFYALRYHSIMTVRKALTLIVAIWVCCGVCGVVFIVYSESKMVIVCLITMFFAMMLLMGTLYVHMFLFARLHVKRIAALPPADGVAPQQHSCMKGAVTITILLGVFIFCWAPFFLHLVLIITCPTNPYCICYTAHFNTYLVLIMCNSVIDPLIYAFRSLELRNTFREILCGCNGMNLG
Chain of 3',5'-cyclic-AMP phosphodiesterase 4D (Q08499 whole entry): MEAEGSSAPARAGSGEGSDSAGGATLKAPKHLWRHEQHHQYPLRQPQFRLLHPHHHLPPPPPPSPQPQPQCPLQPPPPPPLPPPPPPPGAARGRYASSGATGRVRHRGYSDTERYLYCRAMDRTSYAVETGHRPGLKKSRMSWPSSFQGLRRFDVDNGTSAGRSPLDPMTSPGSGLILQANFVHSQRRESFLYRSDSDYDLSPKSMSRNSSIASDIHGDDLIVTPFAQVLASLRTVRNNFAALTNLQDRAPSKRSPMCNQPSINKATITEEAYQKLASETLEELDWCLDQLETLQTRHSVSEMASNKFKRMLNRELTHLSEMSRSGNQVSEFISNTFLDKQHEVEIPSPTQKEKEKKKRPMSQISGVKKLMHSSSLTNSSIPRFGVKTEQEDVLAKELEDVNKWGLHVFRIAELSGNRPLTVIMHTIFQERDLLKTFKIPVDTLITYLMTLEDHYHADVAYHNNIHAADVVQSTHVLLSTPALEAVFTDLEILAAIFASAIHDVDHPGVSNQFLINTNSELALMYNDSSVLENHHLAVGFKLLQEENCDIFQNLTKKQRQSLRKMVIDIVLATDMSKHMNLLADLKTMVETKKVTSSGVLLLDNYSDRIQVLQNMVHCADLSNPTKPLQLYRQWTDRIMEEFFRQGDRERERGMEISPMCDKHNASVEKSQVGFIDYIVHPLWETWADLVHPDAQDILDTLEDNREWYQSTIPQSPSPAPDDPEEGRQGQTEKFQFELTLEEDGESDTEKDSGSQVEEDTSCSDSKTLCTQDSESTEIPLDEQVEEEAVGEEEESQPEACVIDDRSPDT
Chain of D(3) dopamine receptor (P35462 whole entry): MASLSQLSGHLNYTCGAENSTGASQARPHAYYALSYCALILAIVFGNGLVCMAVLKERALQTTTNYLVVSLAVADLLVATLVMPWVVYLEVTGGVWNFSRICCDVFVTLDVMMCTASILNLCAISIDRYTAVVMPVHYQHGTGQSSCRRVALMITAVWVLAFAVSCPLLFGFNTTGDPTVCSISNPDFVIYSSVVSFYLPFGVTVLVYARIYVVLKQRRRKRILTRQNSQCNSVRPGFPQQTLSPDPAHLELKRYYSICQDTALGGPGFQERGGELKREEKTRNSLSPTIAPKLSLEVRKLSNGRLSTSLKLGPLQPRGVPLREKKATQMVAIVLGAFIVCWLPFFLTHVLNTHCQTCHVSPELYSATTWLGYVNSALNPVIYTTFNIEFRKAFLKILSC
Chain of D(1A) dopamine receptor (P21728 whole entry): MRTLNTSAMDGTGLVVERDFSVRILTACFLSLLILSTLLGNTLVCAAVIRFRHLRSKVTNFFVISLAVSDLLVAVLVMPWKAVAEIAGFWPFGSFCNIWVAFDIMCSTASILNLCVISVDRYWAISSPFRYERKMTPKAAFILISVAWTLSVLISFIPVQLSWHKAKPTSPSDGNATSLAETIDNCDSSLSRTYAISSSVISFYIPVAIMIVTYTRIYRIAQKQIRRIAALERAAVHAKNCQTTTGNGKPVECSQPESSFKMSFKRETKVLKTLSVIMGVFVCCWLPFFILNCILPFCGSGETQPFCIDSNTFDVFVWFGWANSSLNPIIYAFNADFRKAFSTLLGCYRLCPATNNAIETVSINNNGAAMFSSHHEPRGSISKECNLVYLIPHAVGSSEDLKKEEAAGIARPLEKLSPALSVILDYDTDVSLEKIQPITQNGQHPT
Chain of Delta-type opioid receptor (P41143 whole entry): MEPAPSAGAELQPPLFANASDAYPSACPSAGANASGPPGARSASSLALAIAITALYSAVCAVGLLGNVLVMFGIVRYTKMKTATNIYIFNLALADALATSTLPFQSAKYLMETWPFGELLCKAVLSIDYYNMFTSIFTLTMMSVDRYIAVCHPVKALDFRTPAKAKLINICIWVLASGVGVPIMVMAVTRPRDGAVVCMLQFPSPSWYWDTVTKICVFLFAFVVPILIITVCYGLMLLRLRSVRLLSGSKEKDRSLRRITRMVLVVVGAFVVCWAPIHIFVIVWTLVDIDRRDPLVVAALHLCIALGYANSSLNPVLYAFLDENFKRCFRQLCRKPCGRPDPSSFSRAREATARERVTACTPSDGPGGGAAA

Consider `CCOC(=O)[C@H](CCc1ccccc1)N[C@@H](C)C(=O)N1[C@H](C(=O)O)C[C@@H]2CCC[C@@H]21`, for which the concentration at half-maximal activity (AC50) in experiment [1] was over 30 µM; at Melanocortin receptor 3 it was over 30 µM; in [2], over 30 µM; in experiment [3], over 30 µM; in experiment [4], over 10 µM; in [5] it was over 10 µM. The AC50 on D(3) dopamine receptor was over 10 µM; on Adenosine receptor A1 it was over 30 µM; in [6], over 10 µM; at D(1A) dopamine receptor, over 10 µM; in experiment [7], over 30 µM.

With `CCCSc1ccc2nc(NC(=O)OC)[nH]c2c1` [ALBENDAZOLE], the half-maximal activity concentration (AC50) in experiment [1] is over 30 µM; on Melanocortin receptor 3 it was over 30 µM; in [2], over 30 µM; in [3], over 10 µM; in experiment [4], over 10 µM; in experiment [5], over 10 µM. In addition, the half-maximal activity concentration (AC50) is over 30 µM on D(3) dopamine receptor; over 10 µM on Adenosine receptor A1; over 30 µM in [6]; over 10 µM on D(1A) dopamine receptor; over 30 µM in experiment [7].

Turning to `Cc1ccc(-c2cc(C(F)(F)F)nn2-c2ccc(S(N)(=O)=O)cc2)cc1` [CELECOXIB], the AC50 was 20 µM in experiment [1]; over 10 µM at Melanocortin receptor 3; 24.4 µM in experiment [2]; over 10 µM in experiment [3]; over 10 µM in [4]; over 10 µM in [5]. Also, the concentration at half-maximal activity (AC50) is over 30 µM at D(3) dopamine receptor; over 10 µM on Adenosine receptor A1; 15.7 µM in experiment [6]; over 10 µM at D(1A) dopamine receptor; over 30 µM in experiment [7].

As to `CC1=C(C(=O)O)N2C(=O)[C@@H](NC(=O)[C@H](N)c3ccccc3)[C@H]2SC1` [CEPHALEXIN ANHYDROUS], the concentration at half-maximal activity (AC50) is over 30 µM in [1]; over 30 µM at Melanocortin receptor 3; over 30 µM in [2]; over 30 µM in [3]; over 30 µM in experiment [5]; over 10 µM on D(3) dopamine receptor. Also, the concentration at half-maximal activity (AC50) was over 30 µM on Adenosine receptor A1, over 10 µM in experiment [6] and over 30 µM in experiment [7].

As to `CN(C)CCC(c1ccc(Cl)cc1)c1ccccn1` (centres undefined) [CHLORPHENIRAMINE], the AC50 in experiment [1] is over 10 µM; on Melanocortin receptor 3 it was over 30 µM; in [2] it was over 30 µM; in experiment [3], over 30 µM; in experiment [4] it was over 10 µM; in [5] it was over 10 µM. For the same compound, the concentration at half-maximal activity (AC50) on D(3) dopamine receptor is over 10 µM; at Adenosine receptor A1, over 30 µM; in experiment [6], 7.7 µM; on D(1A) dopamine receptor, over 10 µM; in experiment [7] it was over 10 µM.

Regarding `CN(C)/N=N/c1[nH]cnc1C(N)=O` [DACARBAZINE], the AC50 in experiment [1] is over 30 µM; on Melanocortin receptor 3, over 10 µM; in experiment [2] it was over 10 µM; in [3] it was over 10 µM; in [4], over 10 µM; in [5], over 10 µM. Further, the concentration at half-maximal activity (AC50) at D(3) dopamine receptor is over 30 µM; at Adenosine receptor A1, over 10 µM; in experiment [6], over 10 µM; at D(1A) dopamine receptor, over 10 µM; in experiment [7] it was over 30 µM.

With `C[N+]1(C)CCC(OC(=O)C(O)(c2ccccc2)C2CCCC2)C1` (centres undefined) [GLYCOPYRRONIUM BROMIDE], the AC50 (in [1]; at Melanocortin receptor 3; in experiment [2]; in experiment [3]) was over 30 µM throughout.

On to `C[C@]12CCC(=O)C=C1CC[C@@H]1[C@@H]2[C@@H](O)C[C@@]2(C)[C@H]1CC[C@]2(O)C(=O)CO` [HYDROCORTISONE], for which the AC50 is over 30 µM in [1]; over 30 µM on Melanocortin receptor 3; over 30 µM in experiment [2]; over 30 µM in [3]; over 10 µM in [4]; over 10 µM in experiment [5]. The half-maximal activity concentration (AC50) at D(3) dopamine receptor was over 10 µM; on Adenosine receptor A1 it was over 30 µM; in experiment [6], over 10 µM; on D(1A) dopamine receptor, over 10 µM; in experiment [7], over 30 µM.

For `O=P1(NCCCl)OCCCN1CCCl` (centres undefined) [IFOSFAMIDE], the half-maximal activity concentration (AC50) (in [1]; at Melanocortin receptor 3; in [2]; in experiment [3]; in [4]; in [5]) was over 30 µM each time. For the same compound, the AC50 (at D(3) dopamine receptor; at Adenosine receptor A1; in [6]; on D(1A) dopamine receptor; in experiment [7]) was over 30 µM in each case.

As to `CCC(C)n1ncn(-c2ccc(N3CCN(c4ccc(OCC5COC(Cn6cncn6)(c6ccc(Cl)cc6Cl)O5)cc4)CC3)cc2)c1=O` (centres undefined) [ITRACONAZOLE], the concentration at half-maximal activity (AC50) is 18 µM in [1]; over 30 µM on Melanocortin receptor 3; over 30 µM in experiment [2]; over 30 µM in [3]; over 30 µM in experiment [4]; over 30 µM in experiment [5]. Besides, the AC50 (on D(3) dopamine receptor; on Adenosine receptor A1; in experiment [6]; on D(1A) dopamine receptor; in [7]) was over 30 µM in each case.

Take `c1ccc([C@H]2CN3CCSC3=N2)cc1` [LEVAMISOLE]: the AC50 (in experiment [1]; on Melanocortin receptor 3; in experiment [2]; in [3]; in [4]; in [5]) was over 30 µM in each case. Also, the AC50 at D(3) dopamine receptor is over 30 µM; on Adenosine receptor A1 it was over 30 µM; in experiment [6], over 30 µM; on D(1A) dopamine receptor, 1.6 µM; in experiment [7], over 30 µM.

Regarding `CCCN1C[C@H](CSC)C[C@@H]2c3cccc4[nH]cc(c34)C[C@H]21` [PERGOLIDE], the concentration at half-maximal activity (AC50) (in [1]; at Melanocortin receptor 3; in experiment [2]; in experiment [3]; in [4]; at Adenosine receptor A1) was over 30 µM throughout. Further, the concentration at half-maximal activity (AC50) in experiment [6] and in experiment [7] was over 30 µM each time.

For `C1CCC(C(CC2CCCCN2)C2CCCCC2)CC1` (centres undefined) [PERHEXILINE], the half-maximal activity concentration (AC50) was over 30 µM in experiment [1]; 8.28 µM on Melanocortin receptor 3; over 30 µM in [2]; over 30 µM in [3]; 11 µM in [5]; over 30 µM on D(3) dopamine receptor. The AC50 at Adenosine receptor A1 was over 30 µM; in experiment [6], 7.24 µM; on D(1A) dopamine receptor, over 30 µM; in experiment [7], 23.5 µM.

On to `COc1cc(NC(C)CCCN)c2ncccc2c1` (centres undefined) [PRIMAQUINE], for which the AC50 in experiment [1] is 12 µM; at Melanocortin receptor 3, over 30 µM; in experiment [3], over 30 µM; at Adenosine receptor A1, over 30 µM.
